This test addresses SIK2 (Homo sapiens, UniProt Q9H0K1). The test is described as follows: SIK2 Enzymatic Assay High Version 2 (High ATP). In kind it is biochemical. To be noted: enzyme 6 nM, 6 mM ATP and 400 μM HDAC5tide (each 2× final concentration); 30 minutes pre-incubation, 2 hours; ADP-Glo Max luminescence; read-out: SIK2 high ATP IC50 (μM) (Test Example 2). The method, boiled down: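 At room temperature, enzyme (6 nM, 2× final) was preincubated with compound for 30 min, then 6 mM ATP and 400 μM HDAC5tide (both 2× final) were added for 2 h. ADP formed was measured by ADP-Glo Max (2 h reagent, 1 h detection) using luminescence.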

Sequence of SIK2 (Q9H0K1 whole entry, species assumed): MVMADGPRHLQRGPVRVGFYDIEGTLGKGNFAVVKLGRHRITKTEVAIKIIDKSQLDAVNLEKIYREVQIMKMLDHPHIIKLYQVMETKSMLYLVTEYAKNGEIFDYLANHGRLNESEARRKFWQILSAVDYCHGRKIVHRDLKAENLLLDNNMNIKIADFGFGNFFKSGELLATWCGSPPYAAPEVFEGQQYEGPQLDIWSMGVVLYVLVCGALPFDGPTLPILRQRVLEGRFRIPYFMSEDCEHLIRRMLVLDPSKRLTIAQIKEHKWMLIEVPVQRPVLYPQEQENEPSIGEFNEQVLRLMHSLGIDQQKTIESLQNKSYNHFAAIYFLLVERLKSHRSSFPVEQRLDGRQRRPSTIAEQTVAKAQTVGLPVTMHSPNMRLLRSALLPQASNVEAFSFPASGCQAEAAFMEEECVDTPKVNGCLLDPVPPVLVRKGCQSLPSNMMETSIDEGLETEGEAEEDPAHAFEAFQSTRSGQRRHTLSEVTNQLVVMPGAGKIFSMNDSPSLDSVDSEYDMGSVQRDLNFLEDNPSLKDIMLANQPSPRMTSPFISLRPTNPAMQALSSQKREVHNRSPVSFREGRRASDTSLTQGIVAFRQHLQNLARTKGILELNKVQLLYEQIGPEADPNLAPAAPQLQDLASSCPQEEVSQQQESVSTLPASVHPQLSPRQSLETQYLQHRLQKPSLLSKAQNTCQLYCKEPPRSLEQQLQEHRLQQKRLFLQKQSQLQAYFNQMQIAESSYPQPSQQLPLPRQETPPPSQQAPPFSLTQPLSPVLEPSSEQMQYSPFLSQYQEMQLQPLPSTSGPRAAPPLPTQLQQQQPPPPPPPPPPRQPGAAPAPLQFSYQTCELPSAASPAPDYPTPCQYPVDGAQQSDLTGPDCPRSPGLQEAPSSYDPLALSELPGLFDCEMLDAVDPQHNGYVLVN

Regarding `Cc1cc(-c2ccn3nc(Nc4cc(C)nc(C)n4)cc3c2)c(OC[C@H]2COC3(CCCC3)O2)cn1` (single isomer, unassigned) [Example 544, (*S)—N-(2,6-dimethylpyrimidin-4-yl)-5-[5-(6,9-dioxaspiro[4.4]nonan-8-ylmethoxy)-2-methyl-4-pyridyl]pyrazolo[1,5-a]pyridin-2-amine], the IC50 stood at 0.0147 µM.

On to `Cc1cc(-c2ccn3nc(Nc4cc(C)nc(C)n4)cc3c2)c(OCC2CC(=O)N(C)C2)cn1` (single isomer, unassigned) [Example 547, (*R)-4-[[4-[2-[(2,6-dimethylpyrimidin-4-yl)amino]pyrazolo[1,5-a]pyridin-5-yl]-6-methyl-3-pyridyl]oxymethyl]-1-methyl-pyrrolidin-2-one], for which the IC50 is 0.014 µM.

In the case of `Cc1cc(-c2ccn3nc(Nc4cc(C)nc(C)n4)cc3c2)c(OC[C@H](O)C2(C)CC2)cn1` (single isomer, unassigned) [Example 548, (*R)-2-[[4-[2-[(2,6-dimethylpyrimidin-4-yl)amino]pyrazolo[1,5-a]pyridin-5-yl]-6-methyl-3-pyridyl]oxy]-1-(1-methylcyclopropyl)ethanol], the IC50 was 0.0462 µM.

For the compound `Cc1cc(-c2ccn3nc(Nc4cc(C)nc(C)n4)cc3c2)c(OC[C@@H](O)C2(C)CC2)cn1` (single isomer, unassigned) [Example 549, (*S)-2-[[4-[2-[(2,6-dimethylpyrimidin-4-yl)amino]pyrazolo[1,5-a]pyridin-5-yl]-6-methyl-3-pyridyl]oxy]-1-(1-methylcyclopropyl)ethanol], the IC50 worked out at 0.0416 µM.

As for `Cc1cc(-c2ccn3nc(Nc4cc(C)nc(C)n4)cc3c2)c(O[C@H]2COC(C)(C)C2)cn1` (single isomer, unassigned) [Example 577, (*R)—N-(2,6-dimethylpyrimidin-4-yl)-5-[5-(5,5-dimethyltetrahydrofuran-3-yl)oxy-2-methyl-4-pyridyl]pyrazolo[1,5-a]pyridin-2-amine], the IC50 is 0.0724 µM.

For the compound `Cc1cc(-c2ccn3nc(Nc4cc(C)nc(C)n4)cc3c2)c(O[C@H]2CCOC(C)(C)C2)cn1` (single isomer, unassigned) [Example 578, (*S)—N-(2,6-dimethylpyrimidin-4-yl)-5-[5-(2,2-dimethyltetrahydropyran-4-yl)oxy-2-methyl-4-pyridyl]pyrazolo[1,5-a]pyridin-2-amine], the concentration for half-maximal inhibition (IC50) was determined as 0.0998 µM.

For `Cc1cc(-c2ccn3nc(NC(=O)C4CC4)cc3c2)c(O[C@@H]2CCC[C@H](O)C2)cn1` (single isomer, unassigned) [Example 602, (1*R, 3*S)—N-[5-[5-(3-hydroxycyclohexoxy)-2-methyl-4-pyridyl]pyrazolo[1,5-a]pyridin-2-yl]cyclopropanecarboxamide], the half-maximal inhibitory concentration (IC50) came to 0.113 µM.

As for `Cc1cc(-c2ccn3nc(NC(=O)C4CC4)cc3c2)c(OCC(C)(O)C2CC2)cn1` (single isomer, unassigned) [Example 603, (*S)—N-[5-[5-(2-cyclopropyl-2-hydroxy-propoxy)-2-methyl-4-pyridyl]pyrazolo[1,5-a]pyridin-2-yl]cyclopropanecarboxamide], the concentration for half-maximal inhibition (IC50) came to 0.202 µM.

As to `Cc1cc(-c2ccn3nc(NC(=O)C4CC4)cc3c2)c(OC[C@@]2(C)CCN2C)cn1` (single isomer, unassigned) [Example 604, (*R)—N-[5-[5-[(1,2-dimethylazetidin-2-yl)methoxy]-2-methyl-4-pyridyl]pyrazolo[1,5-a]pyridin-2-yl]cyclopropanecarboxamide], the IC50 is 0.203 µM.

Consider `Cc1cc(-c2ccn3nc(Nc4cc(C)nc(C)n4)cc3c2)c(OC[C@H]2CC3(CCC3)CO2)cn1` (single isomer, unassigned) [Example 607, (*R)—N-(2,6-dimethylpyrimidin-4-yl)-5-[2-methyl-5-(7-oxaspiro[3.4]octan-6-ylmethoxy)-4-pyridyl]pyrazolo[1,5-a]pyridin-2-amine], for which the IC50 turned out to be 0.1 µM.
